Data reported in ChEMBL document CHEMBL3507680, “University of Dundee, Gates Library screen for HepG2 cell viability”.

Assay: Human HepG2 cell viability assay in 384 well format
Assay type: toxicity, cell-based
Design: dose 125 nL, time 70.5 hour; concentration not given beside the values
Settings: HepG2 cells, read-out: Inhibition

Cc1occc1C(=O)N1CCCn2cnc(CN3CCCC3=O)c2C1
cytotoxicity at 70.5 h: -0.779%

O=C(c1cccnc1N1CCCCC1)N1CCCC(n2ccnc2)C1 (stereo not given)
cytotoxicity at 70.5 h: 1.48%

CN(C)CC(=O)N1CCC2(CC1)COCCN(Cc1ccncc1)C2
cytotoxicity at 70.5 h: -8.72%

CC(C)(C)c1ncc(CNc2ccn(CCc3ccncc3)n2)s1
cytotoxicity at 70.5 h: -10.2%

CNC(=O)C(c1cccc(Cl)c1)C(C)C (stereo not given)
cytotoxicity at 70.5 h: 17.1%

Cn1ncc2c(=O)[nH]c(CN3CCCC3CCc3ccccc3)nc21 (stereo not given)
cytotoxicity at 70.5 h: -1.66%

CNCc1cn(C[C@H]2C[C@@H]3CCN2C[C@@H]3C(=O)NC2CCCCC2)nn1
cytotoxicity at 70.5 h: -5.79%

c1cnc(N2CCOCC3(CCN(c4cnccn4)CC3)C2)nc1
cytotoxicity at 70.5 h: -8.75%

COCC1CN(C(=O)Cc2cccs2)Cc2nnn(C)c21 (stereo not given)
cytotoxicity at 70.5 h: -14.9%

CC(C)(C)c1cc(C(=O)NCCn2nc3ccccn3c2=O)[nH]n1
cytotoxicity at 70.5 h: -4.69%

CC(=O)NCC(=O)N1CCOC2(CCCN(c3ccc(C)nn3)C2)C1 (stereo not given)
cytotoxicity at 70.5 h: -11.9%

Cc1cnccc1CN1CC[C@@](C)(O)[C@H](Oc2ccccc2)C1
cytotoxicity at 70.5 h: 22.4%

CC(C)c1nnc(NCc2cc3n(n2)CCN(C2CCCCC2)C3)s1
cytotoxicity at 70.5 h: -0.516%

CC(C)CC(C)NC1CCN(c2cccc(-c3cscn3)c2)CC1 (stereo not given)
cytotoxicity at 70.5 h: -8.68%

Cc1cnn(CCC(=O)N2CCCN(c3cccnn3)CC2)c1
cytotoxicity at 70.5 h: -2.44%

Cc1occc1-c1nc(NC2CCCC2)ncc1-c1ccccn1
cytotoxicity at 70.5 h: 1.09%

c1cc(CN2CCOCC3(C2)CN(Cc2nccs2)CCO3)ccn1 (stereo not given)
cytotoxicity at 70.5 h: 17.5%

CC(C)Oc1ncccc1CNC(=O)c1ccccn1
cytotoxicity at 70.5 h: -2.17%

CO[C@H]1CN(CC2CCOCC2)[C@@H]2CCCO[C@H]12
cytotoxicity at 70.5 h: -7.16%

COc1ccc(OC)c(CCNc2ncc(S(N)(=O)=O)s2)c1
cytotoxicity at 70.5 h: 0.207%

CCc1nc2ccccc2c(=O)n1CC1(O)CCN(C(=O)COC)CC1
cytotoxicity at 70.5 h: -2.82%

CC1CN(C)c2ccccc2CN1C(=O)c1cscn1 (stereo not given)
cytotoxicity at 70.5 h: -5.75%

CCC(Nc1nc(CCN)nc2ccccc12)c1cccs1 (stereo not given)
cytotoxicity at 70.5 h: -3.38%

Nc1cc2c(nn1)CCN(C(=O)CC1CCCC1)C2
cytotoxicity at 70.5 h: 3.78%

NC(=O)N1CC[C@H](O)[C@@H]1Cc1cccnc1
cytotoxicity at 70.5 h: -12.6%

COCc1nn(CC2CC2)c2c1CN(Cc1ccco1)CC2
cytotoxicity at 70.5 h: -8.39%

CCn1c2c(ccc1=O)CC(NCc1cnn(C)c1)CC2 (stereo not given)
cytotoxicity at 70.5 h: -4.95%

CS(=O)(=O)N1CCC(OCCCc2ccccc2)C1 (stereo not given)
cytotoxicity at 70.5 h: 3.28%

Cc1nnc(N2C[C@H](OCCCn3cccn3)[C@H]3OCCC[C@H]32)s1
cytotoxicity at 70.5 h: -2.53%

CSc1ccccc1C(=O)N(C)C1CCCN(CCc2ccccc2)C1 (stereo not given)
cytotoxicity at 70.5 h: -5.22%

CCc1nnc(CN(C)c2nccc(CCC(F)(F)F)n2)o1
cytotoxicity at 70.5 h: -9.32%

CC(N)C(=O)N1CCC(Oc2cccc(C(F)(F)F)c2)CC1 (stereo not given)
cytotoxicity at 70.5 h: 11.5%

Cc1noc(CCNC(=O)C2CSCN2C(=O)C2CCCC2)n1 (stereo not given)
cytotoxicity at 70.5 h: -5.54%

Cc1nc(CN(C)Cc2nc(-c3sccc3C)oc2C)no1
cytotoxicity at 70.5 h: -3%

CCOc1cc(C(=O)N2CCCC(c3cc(C(N)=O)[nH]n3)C2)ccn1 (stereo not given)
cytotoxicity at 70.5 h: -7.42%

Cn1cc(C2CCCN2C(=O)c2cn(-c3ccccc3)nn2)cn1 (stereo not given)
cytotoxicity at 70.5 h: -0.276%

COC(=O)NCC(=O)NC1(C)CCc2ccccc2C1 (stereo not given)
cytotoxicity at 70.5 h: -8.98%

COc1ccc(C2CNCCN2C(=O)c2cccc3ncccc23)cc1 (stereo not given)
cytotoxicity at 70.5 h: -3.21%

CC(=O)c1cn(CCC(=O)N[C@@H](CC(C)C)C(=O)O)c2ccccc12
cytotoxicity at 70.5 h: -7.76%

Cn1ccnc1C1CCCN(C(=O)c2ccc3nccnc3c2)C1 (stereo not given)
cytotoxicity at 70.5 h: 2.22%

CN1CCCC(CCC(=O)N2CCc3onc(C(=O)N(C)C)c3C2)C1 (stereo not given)
cytotoxicity at 70.5 h: -1.71%

CN(Cc1cccnc1)[C@@H]1CN(Cc2ccccn2)[C@@H]2CCCO[C@H]12
cytotoxicity at 70.5 h: -2.2%

CC(C)c1nnc(CN(C)C(c2ccccc2)c2ccc(F)cc2)o1 (stereo not given)
cytotoxicity at 70.5 h: -2.6%

CC(C(=O)N1CCN(C(=O)c2ccc(F)cc2)CC1)n1ccnc1 (stereo not given)
cytotoxicity at 70.5 h: -4.23%

Cc1ccc(S(=O)(=O)NC(=O)c2c(C)noc2C(C)C)cc1C
cytotoxicity at 70.5 h: 0.282%
